One compound from patent US20160264593A1 (priority 2013, published 2016) can be followed below.

A short description of this data set: Pharmacokinetic study of 157 (and metabolite endothal) in SD rats, iv and po; plasma, liver, brain. Type of data set: in vivo. Conditions: for endothal detectable in brain samples: after single iv 157 at 1.5 mg/kg; for Cmax: female, rat, in vivo, iv. The procedure:
The blood, liver and brain tissue samples were collected at predetermined times from rats. […] Compound were diluted shortly before use in 4% sodium bicarbonate for sterile injection (this is the standard pediatric solution of NaHCO3 with a pH of about 8.5).
Compound 153 was freshly prepared by diluting the drugs shortly before use in 4% sodium bicarbonate for sterile injection (this is the standard pediatric solution of NaHCO3 with a pH of about 8.5). The final concentrations of 153 solutions were 0.25 mg/mL. The 153 solutions were administered via iv or po route at dose volume of 5 ml/kg according to the latest body weight. Compound 157 was freshly prepared by diluting the drugs shortly before use in 4% sodium bicarbonate for sterile injection (this is the standard pediatric solution of NaHCO3 with a pH of about 8.5). The final concentrations of […] solutions were 0.3 mg/mL. The 157 solutions were administered via iv or po route at dose volume of 5 ml/kg according to the latest body weight.
Twelve (12) female SD rats per group were dosed by iv with 153 or 157. The rats were fasted overnight prior to dosing, with free access to water. Foods were withheld for 2 hours post-dose. Blood, liver and brain tissue samples in two animals each group were collected at each time point, within 10% of the scheduled time for each time point. Two extra animals were used for analytic method development.
Blood (>0.3 mL) were collected via aorta abdominalis in anaesthetic animals into tubes containing heparin at 15 min, 1, 2, 6, 10 and 24 hours after iv administration. Liver and brain tissues were collected immediately after animal death. The liver and brain tissues were excised and rinsed with cold saline to avoid blood residual. Upon collection, each sample was placed on ice and the blood samples were subsequently centrifuged (4° C., 11000 rpm, 5 min) to separate plasma. The obtained plasma, liver and brain tissue samples were stored at −70° C. until LC-MS/MS analysis.
Two (2) female SD rats per group were dosed by po with 153 or 157. The rats were fasted overnight prior to dosing, with free access to water. Foods were withheld for 2 hours post-dose. Blood samples (>0.3 mL) were collected via aorta abdominalis in anaesthetic animals into tubes containing heparin at 30 min, 1, 2, 6, 10 and 24 hours after po administration.
To each sample, 30 μL IS-D (for blank samples, 20 μL acetonitrile:water (1:1) was added) and 300 μl acetonitrile was added. The sample mixture was vortexed for approximately 3 min. After centrifugation at 10000 rpm for 5 min at 4° C., 100 μL of the upper layer was transferred to a new tube and added 200 μL 0.4% formic acid in water (pH6.0). The mixture was vortexed for approximately 3 min before injected onto the LC/MS/MS system for analysis.
On the day of the assay, the frozen liver and brain samples were thawed unassisted at room temperature. An about 200 mg weighed sample of each thawed tissue was placed into a plastic tube with water (0.6 mL) to facilitate homogenization. Tissue processing was conducted using a homogenizer for approximately 1 min, 100 μl homogenate was transferred into a fresh Eppendorf tube. To each tube, 50 μL IS-D was added and mixed. Then 500 μl acetonitrile was added and the sample mixture was vortexed for approximately 3 min. After centrifugation at 10000 rpm for 5 min at 4° C., 100 μL of the upper layer was transferred to a new tube and evaporate the supernatant to dryness at 35° C. Reconstitute the residue with 200 μL of 0.4% formic acid in water (pH 6.0), and vortex for 3 min, submit for LC-MS/MS analysis.
Frozen unknown plasma samples were completely thawed at room temperature and vortexed thoroughly. With a pipette, 50 μL of plasma was transferred into a 2.0 mL Eppendorf tube. 50 μL of 0.1N HCl and 800 μL ethyl acetate were added into each sample. The sample mixture was vortexed for approximately 3 min.

On to `O=C(O)C1C2CCC(O2)C1C(=O)O` (stereo not shown) [Endothal, 7-oxabicyclo[2.2.1]heptane-2,3-dicarboxylic acid], for which the Endothal plasma concentration entry (after iv 157, 10 hr, Rat 1) was “BLQ”; the Endothal plasma concentration result (after iv 157, 10 hr, Rat 2) is “BLQ”; the Endothal plasma concentration entry (after iv 157, 24 hr, Rat 1) is listed as “BLQ”; the Endothal plasma concentration entry (after iv 157, 24 hr, Rat 2) is recorded as “BLQ”; the Endothal plasma concentration result (after po 157, 10 hr, Rat 1) is “BLQ”; the Endothal plasma concentration entry (after po 157, 10 hr, Rat 2) is recorded as “BLQ”. Besides, the “endothal detectable in brain samples” value (1.5 mg/kg) was “undetectable” and the “endothal detectable in brain samples” value (listed as endothal, 1.5 mg/kg) is given as “not detectable”. Besides, the Cmax (in general, the maximum level reached in the sampled fluid or tissue) by setting is: (SD, 1.5 mg/kg) 3720 ng/g; (Sprague-Dawley (SD)) 3720 ng/g.
